# Measurements taken from patent US9192644B2, “Bioavailable curcuminoid formulations for treating Alzheimer's disease and other age-related disorders” (The Regents of the University of California, priority 2006, dated 2015).
# Like-named read-outs stand apart in the source and are kept apart here. Marks after values point to notes of the source that are not given here.
# How the values were obtained:
# iNOS = test: Inhibition of iNOS in brain after curcumin administration; assay type: in vivo; settings: mice, plasma levels 0.25-0.5 micromolar
# IL-1β = test: Inhibition of pro-inflammatory IL-1β in brain after curcumin administration; assay type: in vivo; settings: mice, plasma levels 0.25-0.5 micromolar
# in vivo = settings: mouse
# amyloid accumulation = test: Amyloid accumulation in vivo in APP Tg mice
# [1] = system: active c-jun kinase (p)JNK; test: Inhibition of active c-jun kinase in brain after curcumin administration; assay type: in vivo; settings: mice, plasma levels 0.25-0.5 micromolar
# [2] = Conversion of curcumin to tetrahydrocurcumin in plasma; assay type: in vivo
# [3] = Plasma levels after chronic Curc or TC administration in diet (500 ppm chow, 4 months); assay type: in vivo, APPsw mice; settings: for Plasma (μM) / concentration at 4 months: APPsw mice, 500 mg/kg chow (2.5 mg/day), 4 months; for concentration at 4 months: mouse, plasma, oral
# [4] = assay type: physicochemical
# Text: Therefore, providing a curcuminoid-to-antioxidant ratio of about 10:1 or higher should be sufficient to prevent hydrolysis during absorption, and enhance bioavailability. […] Thus, additional antioxidant need not add prohibitively to the bulk of a formulation.
# [5] = 4 hr after administration
smiles,measurement,setting,value
"COc1cc(/C=C/C(=O)CC(=O)/C=C/c2ccc(O)c(OC)c2)ccc1O [Curc, curcumin]",Brain (μg/10 mg protein),"mouse, in vivo, ip, 4 hr",0.074 ± 0.003^b μg/10 mg protein
same,inhibition of iNOS,iNOS,~50%
same,inhibition of pro-inflammatory IL-1β,IL-1β,~50%
same,concentration at 4 hr,in vivo,250 to 500 nM
same,amyloid accumulation,amyloid accumulation,effectively reduces
same,inhibition of active c-jun kinase (p)JNK,[1],~50%
same,curcuminoids in plasma naturally converted to tetrahydrocurcumin,[2],25%
same,Plasma (μM),[3],(0.095 μM)
same,concentration at 4 months,[3],35 ± 14 ng/mL
same,stability in aqueous solution,[4],unstable in aqueous solutions above pH 7.0
"COc1cc(CCC(=O)CC(=O)CCc2ccc(O)c(OC)c2)ccc1O [TC, tetrahydrocurcumin]",Brain (μg/10 mg protein),"gav, dose 147.0 μg, 4 hr after administration",0.027 ± 0.002^a μg/10 mg protein
same,Brain (μg/10 mg protein),"i.m., dose 73.5 μg, 4 hr after administration",0.223 ± 0.023^c μg/10 mg protein
same,Brain (μg/10 mg protein),"i.p., dose 147.0 μg, 4 hr after administration",0.076 ± 0.003^b μg/10 mg protein
same,concentration at 4 hr,in vivo; 73.5 μg,971 ± 92 ng/mL
same,concentration at 4 hr,"in vivo; ip, 147 μg",847 ± 19 ng/mL
same,Plasma (μM),"[5]; i.m., dose 73.5 μg",(2.639 μM)
same,Plasma (μM),"[5]; i.p., dose 147.0 μg",(2.302 μM)
same,Plasma (μM),[3],(0.734 μM)
same,concentration at 4 months,[3],270 ± 3 ng/mL
same,plasma levels relative to curcumin,"[3]; same oral doses, our data and data in the literature",7-8 times
same,stability in aqueous solution,[4],stable even at basic pH
O=C1O[C@H]([C@@H](O)CO)C(O)=C1O [ascorbic acid],retarding curcumin hydrolysis,"[4]; 25 micromolar curcumin, PBS pH 7.4, absorbance at 426 nm (FIG. 2)",very effective
same,retarding hydrolysis of curcumin,"[4]; curcumin-to-ascorbic acid ratio of 1:1 or 2:1, absorbance at 450 and 405 nm (FIGS. 3 and 4)",very effective
same,retarding hydrolysis of curcumin,[4]; curcumin-to-ascorbic acid ratios higher than 2:1 (FIGS. 3 and 4),somewhat diminished effectiveness
